target: alanyl aminopeptidases (APN) (Homo sapiens, UniProt P15144); assay: Inhibition of alanyl aminopeptidase enzymatic activity, fluorogenic substrate (Ala)2-rhodamine 110; format: biochemical; settings: Table 9, starred values = ID50; read-out: ID50 APN (values marked with *)
Experimental: The inhibition characteristics measured are referred to as IC-50 values or ID50 values (the latter marked with “*”) for said enzyme. The enzymatic activity was determined by means of the fluorogenic substrate/product (Ala)2-rhodamine 110.

Chain of alanyl aminopeptidases (APN) (P15144 whole entry, species assumed): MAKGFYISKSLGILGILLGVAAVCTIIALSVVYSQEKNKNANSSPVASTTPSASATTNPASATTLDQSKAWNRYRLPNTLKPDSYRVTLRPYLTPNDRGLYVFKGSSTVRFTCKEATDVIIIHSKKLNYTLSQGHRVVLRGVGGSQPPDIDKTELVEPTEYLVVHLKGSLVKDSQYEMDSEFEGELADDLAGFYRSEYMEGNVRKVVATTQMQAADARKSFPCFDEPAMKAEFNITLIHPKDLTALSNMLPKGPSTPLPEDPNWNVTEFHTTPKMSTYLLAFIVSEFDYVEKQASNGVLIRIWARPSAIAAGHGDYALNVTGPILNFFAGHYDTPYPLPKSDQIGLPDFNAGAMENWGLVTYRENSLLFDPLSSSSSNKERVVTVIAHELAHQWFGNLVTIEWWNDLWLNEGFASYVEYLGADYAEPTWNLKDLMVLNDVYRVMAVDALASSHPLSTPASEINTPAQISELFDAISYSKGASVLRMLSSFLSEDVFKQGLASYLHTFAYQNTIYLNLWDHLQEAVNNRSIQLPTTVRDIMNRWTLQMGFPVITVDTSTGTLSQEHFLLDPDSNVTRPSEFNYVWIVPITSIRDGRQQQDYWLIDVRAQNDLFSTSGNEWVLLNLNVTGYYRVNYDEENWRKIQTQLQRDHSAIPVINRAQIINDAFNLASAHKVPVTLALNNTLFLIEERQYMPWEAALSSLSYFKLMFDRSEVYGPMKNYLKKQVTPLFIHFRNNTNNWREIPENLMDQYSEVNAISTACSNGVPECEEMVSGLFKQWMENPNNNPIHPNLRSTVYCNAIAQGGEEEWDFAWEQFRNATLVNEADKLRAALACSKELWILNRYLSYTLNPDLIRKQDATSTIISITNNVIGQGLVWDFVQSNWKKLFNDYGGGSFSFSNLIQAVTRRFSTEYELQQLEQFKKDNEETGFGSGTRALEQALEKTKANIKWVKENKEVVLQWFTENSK

Compound | IC50
O=c1cc(CSc2nnc(-c3ccco3)c(-c3ccco3)n2)c2ccccc2[nH]1 [A9.107] | 65.1 µM
Cn1c(=O)c2c(ncn2CC(=O)N/N=C/C=C\c2ccco2)n(C)c1=O [A9.113] | 79.8 µM
CCc1ccc(NC(=O)C2CCN(S(=O)(=O)c3ccc(Cl)cc3)CC2)cc1 [A9.114] | 80.4 µM

The remaining lines, values ahead:

IC50 | Compound
53.2 µM | Cc1ccc(Cn2c(SCCC(=O)O)nc3c2c(=O)[nH]c(=O)n3C)cc1 [A9.100]
55 µM | Cc1ccc(/C=C(\NC(=O)c2ccccc2)C(=O)NCCN2CCOCC2)o1 [A9.103]

same assay, conditions: Table 9, unstarred values; read-out: IC50APN

Compound | IC50
Cc1cc(C)n(-c2nnc(N)nn2)n1 [A9.048] | 20.3 µM
CN(C)c1c(Cl)cc(/C(=N/O)N2CCOCC2)cc1Cl [A9.054] | 21.4 µM
O=C(N/N=C/c1ccco1)c1ccc(=O)[nH]n1 [A9.058] | 22.4 µM
O=C1c2cccc3c(Br)c([N+](=O)[O-])cc(c23)C(=O)N1c1cccc([N+](=O)[O-])c1 [A9.062] | 23.3 µM
CCCOC(=O)c1cc(-c2ccc(/C=C3\C(=O)N(CCCO)C(=O)C(C#N)=C3C)o2)ccc1Cl [A9.064] | 23.8 µM
O=C(N/C(=C\c1ccco1)C(=O)N1CCOCC1)c1ccccc1Cl [A9.066] | 25.5 µM
Cc1ccc(/C=N/NC(=O)c2nnn(-c3nonc3N)c2CN2CCOCC2)o1 [A9.067] | 26.7 µM
O=C(NC(Sc1ccncn1)C(=O)c1ccccc1)c1ccccc1 (stereo not shown) [A9.068] | 26.9 µM
COC(=O)c1ccccc1-c1ccc(/C=C2\C(=O)N(C)C(=O)C(C#N)=C2C)o1 [A9.071] | 28.1 µM
CC1=C(C#N)C(=O)N(CC(C)O)C(=O)/C1=C/c1ccc(-c2cccc(Cl)c2C)o1 (stereo not shown) [A9.072] | 28.6 µM
Cc1ccc(C(=O)N/C(=C\c2ccco2)C(=O)N2CCOCC2)cc1C [A9.073] | 28.8 µM
CCCCCCCSc1nnc2c(n1)OC(C(=O)c1ccccc1)=Nc1ccccc1-2 [A9.074] | 28.9 µM
O=C(C1c2ccccc2Oc2ccccc21)n1cc(Cl)cn1 [A9.075] | 29.1 µM
O=c1[nH]cc([N+](=O)[O-])cc1C(F)(F)F [A9.077] | 29.9 µM
CC1=C(C#N)C(=O)N=C(O)/C1=C\c1ccc(-c2ccc(Cl)cc2Cl)o1 [A9.080] | 30.3 µM
NC(=O)C1CCN(C(=O)/C(=C/c2ccco2)NC(=O)c2ccccc2)CC1 [A9.081] | 30.5 µM
CCc1c(C)nc2c(OC)cccc2c1SCC(=O)O [A9.082] | 31.1 µM

Compound | IC50
Nc1nc2nc(-c3ccco3)cc(C(F)(F)F)n2n1 [A9.084] | 32.1 µM
CC1=C(C#N)C(O)=NC(=O)/C1=C/c1ccc(-c2ccc(Cl)cc2Cl)o1 [A9.085] | 32.4 µM
CCOC(=O)C1CCN(C(=O)/C(=C/c2ccco2)NC(=O)c2ccc(C)c(C)c2)CC1 [A9.089] | 34.5 µM
O=[N+]([O-])c1ncn(CN2CCOCC2)n1 [A9.090] | 36.8 µM
CC1CCN(S(=O)(=O)c2ccc3c(c2)C(Cl)(Cl)C(=O)N3)CC1 [A9.092] | 37.2 µM
COc1cc(C)[n+](OC(=O)N(C)C)c(C)c1 [A9.095] | 42.4 µM
CSCCC(Nc1ncnc2c1oc1ccccc12)C(=O)O (stereo not shown) [A9.097] | 48.4 µM
CCOC(=O)c1cc(-c2ccc(/C=C3/C(=O)NC(=O)C(C#N)=C3C)o2)ccc1Cl [A9.099] | 52.1 µM
CCCOC(=O)c1cc(-c2ccc(/C=C3\C(=O)N(CCO)C(=O)C(C#N)=C3C)o2)ccc1Cl [A9.101] | 54 µM
Cc1ccccc1C(=O)N1CCC(C(=O)Nc2ccc(OCc3ccccc3)cc2)CC1 [A9.102] | 54 µM
O=C(CNS(=O)(=O)c1ccc2c(c1)OCCO2)N/N=C/c1ccco1 [A9.104] | 55.6 µM
Cc1ccc(C(=O)N/C(=C\c2ccco2)C(=O)N2CCSCC2)cc1C [A9.109] | 68.9 µM
Cc1ccc(S(=O)(=O)N2CCC(C(=O)N/N=C/c3ccco3)CC2)cc1 [A9.110] | 69.3 µM
COc1ccc(/C=C2\c3ccccc3-c3ccc(C(=O)CCCCN4CCCCC4)cc32)cc1OC [A9.111] | 74.6 µM
CCc1c(C)nc2ccccc2c1SCC(=O)O [A9.112] | 77.4 µM
CCCOC(=O)C(NC(=O)c1ccc(OC)cc1)(N1CCOCC1)C(F)(F)F (stereo not shown) [A9.115] | 90.2 µM
CC1(C)CC(CC/N=C/c2ccccc2)(Cc2ccccc2)CCO1 (stereo not shown) [A9.116] | 93.6 µM

Other lines, results leading:

IC50 | Compound
20.8 µM | CCCN1C(=O)C(C#N)=C(C)/C(=C\c2ccc(-c3cccc(Cl)c3C)o2)C1=O [A9.049]
20.9 µM | COc1ccc(C[C@@H](N)C(=O)N[C@H]2[C@H](O)[C@H](n3cnc4c(N(C)C)ncnc43)O[C@@H]2CO)cc1 [A9.050]
21.1 µM | O=C(N/C(=C\c1ccco1)C(=O)N1CCC(O)CC1)c1ccccc1 [A9.051]
21.2 µM | O=C(O)c1ccc(-n2c(/C=C/c3ccco3)nc3ccccc3c2=O)cc1 [A9.052]
21.3 µM | CC1=C(C#N)C(O)=NC(=O)/C1=C/c1ccc(-c2ccc(Cl)c(C(=O)OC(C)C)c2)o1 [A9.053]
21.6 µM | Cc1cccc(C)c1Nc1c(-c2ccccc2NC(=O)Nc2cccc(Cl)c2)nc2c(C(=O)NCC(C)C)cccn12 [A9.055]
21.9 µM | O=C(/C=C/c1ccco1)Nc1ccc(OCC(=O)N2CCOCC2)cc1 [A9.056]
22.3 µM | CCOC(=O)c1c(C)oc2c1c1c(c3ccccc32)OCN(C2CCS(=O)(=O)C2)C1 (stereo not shown) [A9.057]
25 µM | Cn1nc(-c2cccs2)nc2c(=O)n(C)c(=O)nc1-2 [A9.059]
23 µM | CN(C)CCCN1CCN(c2nc(N(C)CC(=O)O)c3ncn(Cc4ccc(C(F)(F)F)cc4)c3n2)CC1 [A9.060]
23.1 µM | CCOC(=O)C1=C2SCC(=O)N2C(N)=C(C#N)C1 [A9.061]
23.6 µM | O=C(Nc1ccc(O)cc1C(=O)O)c1cccc(N2C(=O)c3cccc4c([N+](=O)[O-])ccc(c34)C2=O)c1 [A9.063]
22.6 µM | Cn1c(=O)[nH]c2nnc(-c3cccs3)nc2c1=O [A9.065]
28 µM | Cc1ccc(Cn2c(SCCC(=O)O)nc3c2c(=O)n(C)c(=O)n3C)cc1 [A9.070]
29.3 µM | C=CCN1C(=O)C(C#N)=C(C)/C(=C\c2ccc(-c3cc(C)c(C)cc3[N+](=O)[O-])o2)C1=O [A9.076]
30 µM | CCOC(=O)C(C#N)c1c([N+](=O)[O-])c(=O)n(-c2ccccc2)c2ccccc12 (stereo not shown) [A9.078]
30.1 µM | O=C(N/N=C\c1ccco1)c1cnccn1 [A9.079]
32 µM | CCCOC(=O)c1cc(-c2ccc(/C=C3/C(=O)N(CC(C)O)C(=O)C(C#N)=C3C)o2)ccc1Cl (stereo not shown) [A9.083]
33.2 µM | CCOc1cccc(/C=N/NC(=O)C2=C(C)Nc3ccccc3S2)c1O [A9.086]
33.9 µM | Cc1ccccc1NC(=O)C1C(c2cccs2)C(C#N)=C(SCC(=O)Nc2ccc(Br)cc2)NC1(C)O (stereo not shown) [A9.087]
33.6 µM | CCOC(=O)C1=C(N)NC2=C(CCCC2)C12C(=O)Nc1ccccc12 (stereo not shown) [A9.088]
36.8 µM | CCCOC(=O)c1cc(-c2ccc(/C=C3\C(=O)NC(=O)C(C#N)=C3C)o2)ccc1Cl [A9.091]
41 µM | CCOC(=O)c1cc(-c2ccc(/C=C3\C(=O)N(CCCO)C(=O)C(C#N)=C3C)o2)ccc1Cl [A9.094]
45 µM | CC1CCN(C(=O)/C(=C\c2ccco2)NC(=O)c2ccccc2)CC1 [A9.096]
49.9 µM | CCOC(=O)c1cc(Br)ccc1-c1ccc(/C=C2\C(=O)N=C(O)C(C#N)=C2C)o1 [A9.098]
59.8 µM | CC1(C)N=C(N)N=C(N)N1c1c(Cl)cccc1Cl [A9.105]
61.5 µM | O=C1Nc2cc(C(=O)N3CCN(c4ccccc4)CC3)ccc2NC1CSCc1ccccc1F (stereo not shown) [A9.106]
65.8 µM | Cc1nc(NC(C)C(=O)O)c2nc(C)oc2n1 (stereo not shown) [A9.108]

From patent US20070037752A1, “Novel alanyl-amino peptidase inhibitors for functionally influencing different cells and treating immunological, inflammatory, neuronal, and other diseases” (priority 2003, published 2007)
